Assay [1] has as its system mitochondrial potential within LLCPK cells. In words: JC-1 mitochondrial potential measurement, LLCPK cells. Particulars: 10 μM valinomycin, within seconds of treatment. Format: cell-based, pig. The text has this: (§1) We have utilized a positively charged cyanine dye, JC-1 (Molecular Probes, Eugene, Oreg.), which diffuses into the cell and readily partitions into the mitochondrial membrane, for measurement of mitochondrial potential. The photophysics of JC-1 are such that when the probe partitions into the mitochondrial membrane and it experiences an electrical potential >140 mV, the probe aggregates and its spectral response is shifted to the red. At membrane potential values <140 mV, JC-1 is primarily monomeric and its spectral response is shifted toward the blue. Therefore, the ratio of two emission wavelengths (645 nm and 530 nm) of JC-1 partitioned into mitochondria provides a sensitive and continuous measure of mitochondrial membrane potential.
(§2) • 1. […] (2 times, 150 μl/well), the toxins were added if required, and the entire plate was scanned in a plate reader. The JC-1 monomer was measured optimally with a 485 nm excitation/530 nm emission wavelength filter set, and the aggregates were best measured with a 590 nm excitation/645 nm emission wavelength set. […]
(§3) The mitochondrial potential within several types of living cells, and the effects of toxins on the potential were measured using the fluorescence ratio Em 645 (590)/Em 530 (485) (excitation wavelengths in parentheses). For example, we measured the effect of 10 μM valinomycin on the mitochondrial potential within LLCPK cells (pig epithelia). […]

In assay [2] the test system is mitochondrial potential in hepatocytes. In words: JC-1 mitochondrial potential measurement, hepatocytes. In kind it is cell-based, rat. Particulars: various concentrations, nearly complete within seconds to minutes.
Source text: as §1, §2, §3

The subject of assay [3] is caspase-3. In words: Caspase-3 biosensor apoptosis assay, MCF-7 cells. In kind it is cell-based. Particulars: MCF-7 cells; 15 h treatment with 100 μM etoposide. Here is the method: For DNA transfection, BHK cells and MCF-7 cells were cultured to 50-70% confluence in 6 well plates containing 3 ml of minimal Eagle's medium (MEM) with 10% fetal calf serum, 1 mM L-glutamine, 50 μg/ml streptomycin, 50 μg/ml penicillin, 0.1 mM non-essential amino acids, 1 mM sodium pyruvate and 10 μg/ml of bovine insulin (for MCF-7 cell only) at 37° C. in a 5% CO2 incubator for about 36 hours. The cells were washed with serum free MEM media and incubated for 5 hours with 1 ml of transfection mixture containing 1 μg of the appropriate plasmid and 4 μg of lipofectimine (BRL) in the serum free MEM media. Subsequently, the transfection medium was removed and replaced with 3 ml of normal culture media. The transfected cells were maintained in growth medium for at least 16 hours before performing selection of the stable cells based on standard molecular biology methods (Ausubel. et al 1995).
For apoptosis assays, the cells (BHK, MCF-7) stably transfected with the appropriate protease biosensor expression vector were plated on tissue culture treated 96-well plates at 50-60% confluence and cultured overnight at 37° C., 5% CO2. Varying concentrations of cis-platin, staurosporine, or paclitaxel in normal culture media were freshly prepared from stock and added to cell culture dishes to replace the old culture media. The cells were then observed with the cell screening system of the present invention at the indicated time points either as live cell experiments or as fixed end-point experiments.
This biosensor is restricted to the cytoplasm by the reactant target sequence. The reactant target sequence is the annexin II cytoskeletal binding domain ([…]) (SEQ ID NO:124) (FIG. 29C) (Eberhard et al. 1997. Mol. Biol. Cell 8:293a). The enzyme recognition site corresponds to two copies of the amino acid sequence DEVD (SEQ ID NO:60) (FIG. 29B), which serves as the recognition site of caspase-3. […]
The biosensor response is measured by quantitating the effective cytoplasm-to-nuclear translocation of the signal (see above). […]

Assay [4] deals with caspase-3. Particulars: MCF-7 cells; accompanied by cleavage of PARP; cited from earlier work.

For the molecule `CC(C)[C@@H]1NC(=O)[C@H](C)OC(=O)[C@@H](C(C)C)NC(=O)[C@@H](C(C)C)OC(=O)[C@H](C(C)C)NC(=O)[C@H](C)OC(=O)[C@@H](C(C)C)NC(=O)[C@@H](C(C)C)OC(=O)[C@H](C(C)C)NC(=O)[C@H](C)OC(=O)[C@@H](C(C)C)NC(=O)[C@@H](C(C)C)OC1=O` [Valinomycin], the “reduction in mitochondrial potential (fluorescence ratio Em 645/Em 530 of JC-1)” value in assay [1] is “approximately 50%”. Moreover, the “changes in mitochondrial potential” value in assay [2] is given as “sensitive to valinomycin”.
With `COc1cc([C@@H]2c3cc4c(cc3[C@@H](O[C@@H]3O[C@@H]5CO[C@@H](C)O[C@H]5[C@H](O)[C@H]3O)[C@H]3COC(=O)[C@H]23)OCO4)cc(OC)c1O` [etoposide], the “Caspase-3 activity with the caspase biosensor” value with caspase-3 [3] is “not detected”. The “time of peak response in caspase-3 activity after stimulation” value with caspase-3 [4] is recorded as 6 h.

Values taken from US6875578B2, “System for cell-based screening” (priority 1997, dated 2005).
